For series [1], the system named is uterine C3 expression (complement 3 mRNA; PR antagonist potential). Description: C3 Rat Uterine Assay. Type of series: in vivo, Sprague Dawley female rats. The note with it: immature female rats, oral gavage, with R5020 0.1 mg/kg sc and ethynyl estradiol 50 ug/kg, 3 doses at 24 hour intervals. As for the experimental part: Addition of a potential PR antagonist can then neutralize the blocking effect of the PR agonist, resulting in a measurable increase in uterine C3 expression.
Immature Sprague Dawley female rats (21 days old, each approximately 50 g in weight) are first administered the R5020 progestin subcutaneously in sesame oil vehicle at 0.1 mg/kg. The rats are then treated with ethynyl estradiol at a dose of 50 ug/kg plus a compound of interest at doses ranging from 1-30 mg/kg made up in 20% β-hydroxycyclodextran in water for an oral gavage volume of 0.3 ml. This dosing is done 3 times at 24 hour intervals. The control groups include rats treated with one of the following (administered and dosed as described above): 1) estrogen (E2) vehicle+R5020 vehicle, 2) E2+R5020 vehicle, 3) E2+R5020, and 4) E2+R5020+asoprisnil (comparator compound, 5 mg/kg). The rats are sacrificed by decapitation 2 hours after the final dose (50 hours total dosing time). Uteri are removed and cleaned of adipose tissue, and ½ (1 uterine horn) is flash-frozen in liquid nitrogen. The tissue is homogenized in TRIzol reagent using lysing matrix beads.
The RNA is isolated by chloroform extraction of the homogenized tissue, followed by isopropanol precipitation of the aqueous layer. The RNA is further purified by binding to a silica-gel based membrane or magnetic bead with a nucleic acid binding surface, and then eluted off with water. The RNA is converted to single strand cDNA via reverse transcriptase. These cDNA templates are analyzed by quantitative real-time PCR which multiplexes the C3 primer/probe set to an endogenous control gene. The resulting C3 data is normalized to the internal control. (Adapted from Lundeen, S. G. et al. J. Steroid Biochemistry and Molecular Biology, 2001, 78, 137-143.) Table 9 below provides data for representative compounds prepared according to the present invention.

Series [2] deals with uterine endometrial transformation. Description: McPhail Assay. The note with it: rabbits; for McPhail Index** @ 10 mpk (Antagonist Mode): in combination with progesterone on days 7-12, antagonist mode; for McPhail Index** @ 30 mpk (Agonist Mode): compound alone on days 7-12, agonist mode. It is filed as in vivo, New Zealand White Rabbits. As to the method: The effects of progesterone receptor modulators on uterine endometrial transformation are evaluated in New Zealand White Rabbits (Harlan, 800-900 g) using the McPhail assay adapted from McPhail, MK. J Physiol, 1934:145-156. To evaluate antagonistic effects of compounds, the rabbits are treated sc with cyclodextrin-encapsulated 17-β-estradiol (Sigma, 10.52 ug/kg/day in 1 ml of saline) on days 1-6. The rabbits are then treated sc with progesterone (Sigma, 1.0 mg/kd/day in 1 ml of corn oil) in combination with compound of the present invention (in 15% Povidone K12, 10% Pluronic F68 (poloxamer 188) in deionized water (DIW): probe sonicated to mean<2 micron, 3 ml dose volume) on days 7-12. To evaluate agonist effects of compound, the rabbits are treated with either a compound of interest or progesterone alone on days 7-12. On day 13 the animals are sacrificed, uteri removed and fixed in zinc formalin (Richard-Allan Scientific). The fixed uteri are sectioned into 2-3 mm transverse slices and stained with haematoxylin and eosin. A total of six slices (a proximal, medial and distal section from each uterine horn) are evaluated histologically and the progestational effect is scored using the McPhail index. The McPhail test can be used to identify SPRMs.

The target of series [3] is T1, human progesterone receptor (PR) (Homo sapiens, UniProt P06401).
T1 construct: expressed in transfected cells; host or cells: HEK293
T1 sequence (P06401 1-933): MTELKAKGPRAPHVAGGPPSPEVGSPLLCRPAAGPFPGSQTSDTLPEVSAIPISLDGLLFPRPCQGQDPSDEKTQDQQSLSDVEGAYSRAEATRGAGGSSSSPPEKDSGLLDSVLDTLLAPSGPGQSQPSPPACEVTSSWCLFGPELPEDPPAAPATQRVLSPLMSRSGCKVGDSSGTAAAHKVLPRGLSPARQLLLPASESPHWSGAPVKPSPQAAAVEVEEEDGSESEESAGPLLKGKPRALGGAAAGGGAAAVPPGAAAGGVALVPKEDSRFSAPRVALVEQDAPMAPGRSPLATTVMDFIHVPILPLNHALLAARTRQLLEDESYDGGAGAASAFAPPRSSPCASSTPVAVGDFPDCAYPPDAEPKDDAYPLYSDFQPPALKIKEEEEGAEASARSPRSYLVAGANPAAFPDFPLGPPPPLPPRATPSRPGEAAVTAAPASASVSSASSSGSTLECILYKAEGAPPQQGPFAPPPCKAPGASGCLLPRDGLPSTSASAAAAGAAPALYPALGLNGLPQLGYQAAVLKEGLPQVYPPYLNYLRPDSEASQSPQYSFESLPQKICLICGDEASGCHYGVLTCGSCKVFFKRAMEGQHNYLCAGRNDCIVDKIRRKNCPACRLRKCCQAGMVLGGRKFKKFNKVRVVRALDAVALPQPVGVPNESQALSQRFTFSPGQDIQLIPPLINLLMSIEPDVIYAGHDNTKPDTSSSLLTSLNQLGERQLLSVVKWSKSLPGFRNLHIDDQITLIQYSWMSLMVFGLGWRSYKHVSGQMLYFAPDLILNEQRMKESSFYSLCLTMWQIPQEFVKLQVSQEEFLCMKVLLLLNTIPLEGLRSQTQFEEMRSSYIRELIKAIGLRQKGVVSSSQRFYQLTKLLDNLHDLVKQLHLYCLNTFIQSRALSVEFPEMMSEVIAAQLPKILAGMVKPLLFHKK
The experiment in a line: PR CTF assay (co-transfected HEK293 cells, GRE-luciferase reporter). Type of series: cell-based. Conditions: antagonist mode, with 0.05-0.08 nM R5020, 24 h. As for the experimental part:
Human embryonic kidney HEK293 cells are co-transfected using Fugene. Briefly, the reporter plasmid pGL3 containing two copies of GRE (glucocorticoid response element ^5'[NT]3) and TK promoter upstream of the luciferase reporter cDNA is transfected with a plasmid constitutively expressing human progesterone receptor (PR), using viral CMV promoter. Cells are transfected in T225 cm^2 flasks in DMEM media with 5% charcoal-stripped Fetal Bovine Serum (FBS). After an overnight incubation, transfected cells are trypsinized, plated in 96 well dishes in DMEM media containing 5% charcoal-stripped FBS, incubated for 4 h and then exposed to various concentrations of test compounds in 1:4 dilution increments. In the antagonist assays low concentrations of agonist (0.05-0.08 nM of R5020) is also added to the media. After 24 h of incubation with compounds, cells are lysed and luciferase activity is determined. Data is fit to a 4 parameter-fit logistics curve to determine EC50 and IC50 values. The % efficacy is determined versus maximum stimulation obtained with 30 nM R5020. In the antagonist mode the % inhibition is determined verses the effects of 30 nM R5020 alone.

SMILES strings stand for the structures.

As a reminder, the ED50 is the midpoint of the dose-response relation. As for `Cc1cc(-c2cn(C(C)C)c3cc(NS(C)(=O)=O)ccc23)ccc1C#N` [Ex 49, N-[3-(4-Cyano-3-methyl-phenyl)-1-isopropyl-1H-indol-6-yl]-methanesulfonamide], in series [1], the ED50 was < 5 mg/kg.

A word on the IC50: it is the point on the concentration scale where inhibition reaches its midpoint. Take `CC(C)n1cc(-c2ccc(C#N)nc2)c2ccc(NS(C)(=O)=O)cc21` [Example 48, N-[3-(6-Cyano-pyridin-3-yl)-1-isopropyl-1H-indol-6-yl]-methanesulfonamide]: the ED50 in series [1] is < 5 mg/kg. Moreover, in series [2], the “McPhail Index** @ 10 mpk (Antagonist Mode)” value (“McPhail Index** @ 10 mpk” for short) was “+ (+ <2)” and the “McPhail Index** @ 30 mpk (Agonist Mode)” value is “+ (+ <2)”. For the same compound, the IC50 in series [3] is ~0.0117 µM.

As to `CC(C)n1cc(-c2ccc(C#N)c(Cl)c2)c2ccc(NS(C)(=O)=O)cc21` [Example 50, N-[3-(4-Cyano-3-chloro-phenyl)-1-isopropyl-1H-indol-6-yl]-methanesulfonamide], the ED50 in series [1] was < 5 mg/kg. Also, in series [2], the “McPhail Index** @ 10 mpk” value was “+ (+ <2)” and the “McPhail Index** @ 30 mpk (Agonist Mode)” value is “+ (+ <2)”.

As to `CCCCn1cc(-c2ccc(C#N)c(F)c2)c2ccc(NS(C)(=O)=O)cc21` [Example 53, N-[1-Butyl-3-(4-cyano-3-fluoro-phenyl)-1H-indol-6-yl]-methanesulfonamide], the median effective dose (ED50) in series [1] is > 10 mg/kg. Besides, in series [2], the “McPhail Index** @ 10 mpk” value is listed as “+++ (+++ ≧3)” and the “McPhail Index** @ 30 mpk (Agonist Mode)” value is listed as “++ (++ 2-3)”.

For orientation: melting point means the temperature of the solid-liquid transition. `CC(C)n1cc(-c2cc(C#N)nn2C)c2ccc(NS(C)(=O)=O)cc21` [Example 121, N-[3-(5-Cyano-2-methyl-2H-pyrazol-3-yl)-1-isopropyl-1H-indol-6-yl]-methanesulfonamide] returned a melting point of 189 to 191 °C.

Turning to `CCn1nc(C#N)cc1-c1cn(C(C)C)c2cc(NS(C)(=O)=O)ccc12` [Example 124, N-[3-(5-Cyano-2-ethyl-2H-pyrazol-3-yl)-1-isopropyl-1H-indol-6-yl]-methanesulfonamide], the melting point fell in the range of 144 to 145 °C.

In the case of `CC(C)n1cc(-c2cc(F)c(C#N)c(F)c2)c2ccc(NS(C)(=O)=O)cc21` [Example 170, N-[3-(4-Cyano-3,5-difluoro-phenyl)-1-isopropyl-1H-indol-6-yl]-methanesulfonamide], the ED50 in series [1] was < 5 mg/kg. Also, in series [2], the “McPhail Index** @ 10 mpk” value is recorded as “+++ (+++ ≧3)” and the “McPhail Index** @ 30 mpk (Agonist Mode)” value is listed as “+++ (+++ ≧3)”.

Turning to `CC(C)n1cc(-c2ccc([N+](=O)[O-])cc2)c2ccc(NS(C)(=O)=O)cc21` [Example 197, N-[1-Isopropyl-3-(4-nitro-phenyl)-1H-indol-6-yl]-methanesulfonamide], in series [1], the ED50 is < 5 mg/kg. Besides, in series [2], the “McPhail Index** @ 10 mpk” value is listed as “++ (++ 2-3)” and the “McPhail Index** @ 30 mpk (Agonist Mode)” value is “+ (+ <2)”.

Values taken from patent US7932284B2, “Indole sulfonamide modulators of progesterone receptors” (Eli Lilly and Company, priority 2006, dated 2011).
